Reference: ChEMBL document CHEMBL1145473, “Efficacy of the de novo-derived antimicrobial peptide WLBU2 against oral bacteria” (2007)
The source made the active and inactive calls. The calls are words filed in the database; no cut-off is given here.

Assays:
[1] = system: Fusobacterium nucleatum; assay: Antimicrobial activity against Fusobacterium nucleatum ATCC 25586 by broth dilution assay; type: functional
[2] = system: Streptococcus gordonii; assay: Antimicrobial activity against Streptococcus gordonii DL1 ATCC 49818 planktonic cells at 25 uM after 30 mins; type: functional, organism-based
[3] = system: Fusobacterium nucleatum; assay: Antimicrobial activity against Fusobacterium nucleatum ATCC 49256 by broth dilution assay; type: functional
[4] = system: Fusobacterium nucleatum; assay: Antimicrobial activity against Fusobacterium nucleatum planktonic cells at 2 uM after 30 mins; type: functional, organism-based
[5] = system: Streptococcus gordonii; assay: Antimicrobial activity against Streptococcus gordonii DL1 ATCC 49818 biofilms assessed as decrease in viable cell count at 25 uM after 30 mins; type: functional, organism-based
[6] = system: Streptococcus gordonii; assay: Antimicrobial activity against Streptococcus gordonii DL1 ATCC 49818 by broth dilution assay; type: functional
[7] = system: Pseudomonas aeruginosa; assay: Antimicrobial activity against Pseudomonas aeruginosa ATCC 47085 by broth dilution assay; type: functional
[8] = system: Porphyromonas gingivalis; assay: Antimicrobial activity against Porphyromonas gingivalis W83 ATCC BAA0308 by broth dilution assay; type: functional
[9] = system: Fusobacterium nucleatum; assay: Antimicrobial activity against Fusobacterium nucleatum biofilms assessed as decrease in viable cell count at 2 uM after 30 mins; type: functional, organism-based

| Compound | MBC [1] | Activity [2] | MBC [3] | Activity [4] | Activity [5] | MBC [6] | MBC [7] | MBC [8] | Activity [9] |
| --- | --- | --- | --- | --- | --- | --- | --- | --- | --- |
| H-RRWVRRVRRWVRRVVRVVRRWVRR-OH | 1 µM | Active | 1 µM | Active | Active | 12.5 µM | 1 µM | 50 µM | – |
| Cc1ncc([N+](=O)[O-])n1CCO | – | – | – | – | – | – | – | – | inactive |
| CC1(C)S[C@@H]2[C@H](NC(=O)[C@H](N)c3ccc(O)cc3)C(=O)N2[C@H]1C(=O)O | – | – | – | – | – | – | – | – | inactive |
